Laboratory results reported in patent US20100249145A1, “Inhibitors of VEGF Receptor and HGF Receptor Signaling” (Methylgene, Inc., priority 2005, published 2010).
Where a name gives a salt, the structure may show the parent alone.

Tests used:
[1] = biological target: T1, recombinant human c-Met/HGF receptor (Homo sapiens, UniProt P08581); assay: In vitro receptor tyrosine kinase assay (DELFIA), c-Met/HGF receptor; format: biochemical; settings: Table 30; ATP 10 uM, enzyme 25 nM; read-out: C-Met (enz.) (IC50)
T1 construct: His tag (histidine tag from pBlueBacHis2A); made in house; host or cells: Hi-5 cells (Trichoplusia ni), recombinant baculovirus

[2] = biological target: T2, VEGF receptor KDR (Homo sapiens, UniProt P35968); assay: In vitro receptor tyrosine kinase assay (DELFIA), VEGF receptor KDR; format: biochemical; settings: Table 30; ATP 0.6 uM, enzyme 5 nM; read-out: VEGF(enz.) (IC50)
T2 construct: made in house; host or cells: Sf9 cells (Spodoptera frugiperda), recombinant baculovirus

[3] = biological target: TPR-MET fusion protein (Homo sapiens, UniProt P08581); assay: C-Met phosphorylation cell-based assay (MNNGHOS cells, immunoblot); settings: Table 30, 3 hours treatment, read-out: C-Met cell-based Y1230-34-35 tpr-met inhibition (IC50)
From the text: C-Met Phosphorylation Cell-Based Assay

Sequence of TPR-MET fusion protein (P08581 with tags, fused parts or gaps): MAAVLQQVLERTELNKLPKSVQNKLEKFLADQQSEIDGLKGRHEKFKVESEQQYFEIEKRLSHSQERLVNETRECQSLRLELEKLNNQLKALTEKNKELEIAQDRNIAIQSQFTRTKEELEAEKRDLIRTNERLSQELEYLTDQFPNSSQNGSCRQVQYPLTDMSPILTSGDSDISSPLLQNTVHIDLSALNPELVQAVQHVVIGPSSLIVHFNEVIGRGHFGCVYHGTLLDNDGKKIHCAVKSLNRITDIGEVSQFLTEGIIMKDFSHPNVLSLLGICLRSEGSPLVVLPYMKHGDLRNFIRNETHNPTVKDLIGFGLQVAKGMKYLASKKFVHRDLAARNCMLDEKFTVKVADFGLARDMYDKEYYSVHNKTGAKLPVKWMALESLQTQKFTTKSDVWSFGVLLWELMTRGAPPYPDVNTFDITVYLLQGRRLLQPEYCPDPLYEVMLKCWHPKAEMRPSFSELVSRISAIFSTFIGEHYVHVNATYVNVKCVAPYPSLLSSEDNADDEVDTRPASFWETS
T2 sequence (P35968 806-1356): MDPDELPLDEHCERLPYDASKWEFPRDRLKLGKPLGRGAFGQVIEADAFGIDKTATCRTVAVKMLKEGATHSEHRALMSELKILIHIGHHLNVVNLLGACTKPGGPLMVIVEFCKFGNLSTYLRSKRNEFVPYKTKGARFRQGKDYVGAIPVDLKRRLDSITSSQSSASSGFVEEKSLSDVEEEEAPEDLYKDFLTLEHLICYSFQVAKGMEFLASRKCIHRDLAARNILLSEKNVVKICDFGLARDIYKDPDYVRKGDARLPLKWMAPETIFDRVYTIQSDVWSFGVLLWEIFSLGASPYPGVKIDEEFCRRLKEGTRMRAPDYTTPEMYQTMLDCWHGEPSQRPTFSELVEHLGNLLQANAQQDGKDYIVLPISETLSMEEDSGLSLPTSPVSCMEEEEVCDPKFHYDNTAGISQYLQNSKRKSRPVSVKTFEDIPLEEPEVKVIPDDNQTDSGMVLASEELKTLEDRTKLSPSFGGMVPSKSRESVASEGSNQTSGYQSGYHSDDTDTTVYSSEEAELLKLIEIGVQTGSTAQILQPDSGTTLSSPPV
T1 sequence (P08581 1078-1337): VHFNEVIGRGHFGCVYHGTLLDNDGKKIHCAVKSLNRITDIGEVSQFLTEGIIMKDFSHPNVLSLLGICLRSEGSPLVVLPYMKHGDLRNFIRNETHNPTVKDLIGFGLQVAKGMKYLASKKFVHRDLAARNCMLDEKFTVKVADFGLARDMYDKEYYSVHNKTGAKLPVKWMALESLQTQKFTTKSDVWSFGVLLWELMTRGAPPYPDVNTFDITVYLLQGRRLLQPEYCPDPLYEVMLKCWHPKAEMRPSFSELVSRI

Row | IC50 [1] [nM] | IC50 [2] [nM] | IC50 [3] [nM] | Compound
1 | 50 to 250 | < 50 | 50 to 250 | NC(=O)[C@@H]1CCCN1C(=O)c1cc2nccc(Oc3ccc(NC(=S)NC(=O)Cc4ccccc4)cc3F)c2s1 [Example 40, (S)-1-(7-(2-Fluoro-4-(3-(2-phenylacetyl)thioureido)phenoxy)thieno[3,2-b]pyridine-2-carbonyl)pyrrolidine-2-carboxamide]
2 | 50 to 250 | < 50 | < 50 | O=C(Cc1ccccc1)NC(=S)Nc1ccc(Oc2ncnc3cc(C(=O)N4CCCC4)sc23)c(F)c1 [Example 142, N-(3-Fluoro-4-(6-(pyrrolidine-1-carbonyl)thieno[3,2-d]pyrimidin-4-yloxy)phenylcarbamothioyl)-2-phenylacetamide]
3 | < 50 | > 500 | > 500 | O=C(Cc1ccccc1)NC(=S)Nc1ccc(Oc2ccnc3cc[nH]c23)c(F)c1 [Example 221, N-(4-(1H-Pyrrolo[3,2-b]pyridin-7-yloxy)-3-fluorophenylcarbamothioyl)-2-phenyl acetamide]

Second part, the molecule before the results:

Row | Compound | IC50 [1] [nM] | IC50 [2] [nM] | IC50 [3] [nM]
4 | CON(C)C(=O)c1cc2nccc(Oc3ccc(NC(=S)NC(=O)Cc4ccccc4)cc3F)c2s1 [Example 10, 1-(4-(2-(N-methoxy-N-methylcarbamoyl)thieno[3,2-b]pyridin-7-yloxy)-3-fluorophenyl)-3-(2-phenylacetyl)thiourea] | 50 to 250 | 50 to 250 | 50 to 250
5 | COC(=O)C(C)N(C(=S)NC(=O)Cc1ccccc1)c1ccc(Oc2ccnc3cc(C(N)=O)sc23)c(F)c1 (stereo not drawn) [Example 11, Methyl 2-(1-(4-(2-(carbamoyl)thieno [3,2-b]pyridin-7-yloxy)-3-fluorophenyl)-3-(2-phenylacetyl)thioureido) propanoate] | 50 to 250 | > 500 | 50 to 250
6 | O=C(Cc1ccccc1)NC(=S)Nc1ccc(Oc2ncnc3cc(C(=O)NCCN4CCOCC4)sc23)c(F)c1 [Example 22, 1-(4-(6-(2-Morpholinoethylcarbamoyl)thieno[3,2-d]pyrimidin-4-yloxy)-3-fluorophenyl)-3-(2-phenylacetyl)thiourea] | 50 to 250 | 50 to 250 | < 50
7 | CN(C)C(=O)c1cc2ncnc(Oc3ccc(NC(=S)NC(=O)Cc4ccccc4)cc3F)c2s1 [Example 23, 1-(4-(6-(Dimethylcarbamoyl)thieno[3,2-d]pyrimidin-4-yloxy)-3-fluorophenyl)-3-(2-phenylacetyl)thiourea] | 50 to 250 | < 50 | 50 to 250
8 | CN(Cc1ccco1)C(=O)c1cc2nccc(Oc3ccc(NC(=S)NC(=O)Cc4ccccc4)cc3F)c2s1 [Example 35, 7-[2-Fluoro-4-(3-phenylacetyl-thioureido)-phenoxy]-thieno[3,2-b]pyridine-2-carboxylic acid furan-2-ylmethyl-methyl-amide] | 50 to 250 | 50 to 250 | < 50
9 | CC(C)N(CCNC(=O)c1cc2nccc(Oc3ccc(NC(=S)NC(=O)Cc4ccccc4)cc3F)c2s1)C(C)C [Example 36, 7-[2-Fluoro-4-(3-phenylacetyl-thioureido)-phenoxy]-thieno[3,2-b]pyridine-2-carboxylic acid (2-diisopropylamino-ethyl)-amide, formate salt] | 50 to 250 | > 500 | 50 to 250
